Assays:
Assay type in all cases: functional, cell-based
[1] = test system: CCRF-CEM; test: Growth inhibition of human CCRF-CEM cells incubated for 48 hrs by sulforhodamine B assay
[2] = test system: HL-60(TB); test: Growth inhibition of human HL-60(TB) cells incubated for 48 hrs by sulforhodamine B assay; conditions: HL-60, 48 h
[3] = test system: MOLT-4; test: Growth inhibition of human MOLT4 cells incubated for 48 hrs by sulforhodamine B assay; conditions: MOLT-4, 48 h, read-out: TGI
[4] = test system: RPMI-8226; test: Growth inhibition of human RPMI8226 cells incubated for 48 hrs by sulforhodamine B assay; conditions: RPMI-8226, 48 h
[5] = test system: HOP-62; test: Growth inhibition of human HOP62 cells incubated for 48 hrs by sulforhodamine B assay; conditions: HOP-62, 48 h
[6] = test system: HOP-92; test: Growth inhibition of human HOP92 cells incubated for 48 hrs by sulforhodamine B assay; conditions: HOP-92, 48 h
[7] = test system: NCI-H226; test: Growth inhibition of human NCI-H226 cells incubated for 48 hrs by sulforhodamine B assay; conditions: NCI-H226, 48 h
[8] = test system: NCI-H23; test: Growth inhibition of human NCI-H23 cells incubated for 48 hrs by sulforhodamine B assay; conditions: NCI-H23, 48 h
[9] = test system: NCI-H522; test: Growth inhibition of human NCI-H522 cells incubated for 48 hrs by sulforhodamine B assay; conditions: NCI-H522, 48 h
[10] = test system: COLO 205; test: Growth inhibition of human COLO205 cells incubated for 48 hrs by sulforhodamine B assay; conditions: COLO 205, 48 h
[11] = test system: HCT-116; test: Growth inhibition of human HCT116 cells incubated for 48 hrs by sulforhodamine B assay; conditions: HCT-116, 48 h
[12] = test system: HT-29; test: Growth inhibition of human HT-29 cells incubated for 48 hrs by sulforhodamine B assay; conditions: HT-29, 48 h
[13] = test system: KM12; test: Growth inhibition of human KM12 cells incubated for 48 hrs by sulforhodamine B assay; conditions: KM12, 48 h
[14] = test system: SF-295; test: Growth inhibition of human SF295 cells incubated for 48 hrs by sulforhodamine B assay; conditions: SF-295, 48 h
[15] = test system: SF-539; test: Growth inhibition of human SF539 cells incubated for 48 hrs by sulforhodamine B assay; conditions: SF-539, 48 h
[16] = test system: Malme-3M; test: Growth inhibition of human MALME-3M cells incubated for 48 hrs by sulforhodamine B assay
[17] = test system: M14; test: Growth inhibition of human M14 cells incubated for 48 hrs by sulforhodamine B assay; conditions: M14, 48 h
[18] = test system: MDA-MB-435; test: Growth inhibition of human MDA-MB-435 cells incubated for 48 hrs by sulforhodamine B assay; conditions: MDA-MB-435, 48 h
[19] = test system: SK-MEL-2; test: Growth inhibition of human SK-MEL-2 cells incubated for 48 hrs by sulforhodamine B assay; conditions: SK-MEL-2, 48 h
[20] = test system: SK-MEL-5; test: Growth inhibition of human SK-MEL-5 cells incubated for 48 hrs by sulforhodamine B assay; conditions: SK-MEL-5, 48 h
[21] = test system: UACC-257; test: Growth inhibition of human UACC257 cells incubated for 48 hrs by sulforhodamine B assay; conditions: UACC-257, 48 h
[22] = test system: UACC-62; test: Growth inhibition of human UACC62 cells incubated for 48 hrs by sulforhodamine B assay; conditions: UACC-62, 48 h
[23] = test system: IGROV-1; test: Growth inhibition of human IGROV1 cells incubated for 48 hrs by sulforhodamine B assay; conditions: IGROV-1, 48 h, read-out: TGI
[24] = test system: NCI/ADR-RES; test: Growth inhibition of human NCI/ADR-RES cells incubated for 48 hrs by sulforhodamine B assay; conditions: read-out: TGI
[25] = test system: ACHN; test: Growth inhibition of human ACHN cells incubated for 48 hrs by sulforhodamine B assay; conditions: read-out: TGI
[26] = test system: TK-10; test: Growth inhibition of human TK10 cells incubated for 48 hrs by sulforhodamine B assay; conditions: TK-10, 48 h
[27] = test system: PC-3; test: Growth inhibition of human PC3 cells incubated for 48 hrs by sulforhodamine B assay; conditions: PC-3, 48 h
[28] = test system: MCF7; test: Growth inhibition of human MCF7 cells incubated for 48 hrs by sulforhodamine B assay; conditions: MCF7, 48 h, read-out: TGI
[29] = test system: MDA-MB-231; test: Growth inhibition of human MDA-MB-231 cells incubated for 48 hrs by sulforhodamine B assay; conditions: MDA-MB-231, 48 h
[30] = test system: T47D; test: Growth inhibition of human T47D cells incubated for 48 hrs by sulforhodamine B assay
[31] = test system: MDA-MB-468; test: Growth inhibition of human MDA-MB-468 cells incubated for 48 hrs by sulforhodamine B assay; conditions: MDA-MB-468, 48 h

CNC(=O)c1cc(Oc2ccc(NC(=O)Nc3ccc(Cl)c(C(F)(F)F)c3)cc2)ccn1 [SORAFENIB]
IC50 [1]: 2 µM | IC50 [2]: 1.58 µM | TGI ([2]; read-out: TGI): 100 µM | TGI [3]: 100 µM | IC50 [4]: 1.58 µM | IC50 [5]: 2 µM | IC50 [6]: 1.58 µM | TGI ([6]; read-out: TGI): 5.01 µM | IC50 [7]: 2 µM | IC50 [8]: 2 µM | TGI ([8]; read-out: TGI): 5.01 µM | IC50 [9]: 2 µM | IC50 [10]: 2 µM | IC50 [11]: 1.58 µM | IC50 [12]: 2 µM | IC50 [13]: 1.58 µM | IC50 [14]: 1.58 µM | IC50 [15]: 1.58 µM | IC50 [16]: 2 µM | IC50 [17]: 2 µM | IC50 [18]: 1.58 µM | IC50 [19]: 2 µM | IC50 [20]: 1.58 µM | IC50 [21]: 2 µM | TGI ([21]; read-out: TGI): 5.01 µM | IC50 [22]: 1.58 µM | TGI [23]: 10 µM | TGI [24]: 7.94 µM | TGI [25]: 10 µM | IC50 [26]: 3.98 µM | TGI ([26]; read-out: TGI): 10 µM | IC50 [27]: 2 µM | TGI [28]: 7.94 µM | IC50 [29]: 1.26 µM | IC50 [30]: 1.58 µM | IC50 [31]: 2 µM
